This note sets out measurements from PubChem BioAssay (NCI).

Some test systems named below: SK-MEL-2 melanoma; HCT-116 colon; DU-145 prostate; CCRF-CEM leukemia; LOX IMVI melanoma; TK-10 renal; M14 melanoma; MDA-MB-435; 786-0 renal; SN12C renal.
Common to all, as to assay: NCI-60 cell line screen, 48 h

The structures appear in SMILES notation.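 Growth conditions: 96-well plates. Treatment: test compound, 48 hours, 5 concentrations. Analysis: linear interpolation between bracketing concentrations; unreached endpoints set to highest concentration. GI50 marks 50% less growth. At the TGI there is no net growth.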

Take `N#C/C(=C/N1CCN(C(=O)c2ccco2)C1=S)C(=O)Nc1ccc(Cl)cc1`: the GI50 with SK-MEL-2 melanoma was 16.7 µM; in the experiment with HCT-116 colon it was 15.2 µM; in the experiment on DU-145 prostate, 15.9 µM; with CCRF-CEM leukemia it was 22.5 µM; with LOX IMVI melanoma, 16.7 µM; in the experiment on TK-10 renal it was 19.4 µM. In addition, the GI50 in the experiment with M14 melanoma is 14.2 µM; in the experiment with MDA-MB-435, 15.2 µM; in the experiment with 786-0 renal it was 17.4 µM; with SN12C renal it was 11.8 µM. Further, the TGI is 39.7 µM in the experiment on SK-MEL-2 melanoma; over 50 µM with HCT-116 colon; over 50 µM in the experiment with DU-145 prostate; over 50 µM in the experiment on CCRF-CEM leukemia; over 50 µM in the experiment on LOX IMVI melanoma; over 50 µM in the experiment with TK-10 renal. Further, the TGI in the experiment with M14 melanoma was over 50 µM; in the experiment with MDA-MB-435 it was over 50 µM; in the experiment on 786-0 renal, over 50 µM; in the experiment with SN12C renal, 37.2 µM.

In the case of `Cc1ccc(S(=O)(=O)n2cc([C@@]3(O)C[C@H](CSC#N)OC3=O)c3ccccc32)cc1`, the GI50 was 9.23 µM in the experiment with SK-MEL-2 melanoma; 5.07 µM in the experiment on HCT-116 colon; 4.39 µM in the experiment on DU-145 prostate; 3.17 µM with CCRF-CEM leukemia; 8.83 µM with LOX IMVI melanoma; 16.3 µM with TK-10 renal. In addition, the GI50 is 7.94 µM with M14 melanoma, 6.78 µM in the experiment on MDA-MB-435, 12.7 µM with 786-0 renal and 7.97 µM with SN12C renal. Moreover, the TGI was found to be 24.4 µM with SK-MEL-2 melanoma; 17.7 µM with HCT-116 colon; 15.3 µM in the experiment on DU-145 prostate; 25.2 µM in the experiment on CCRF-CEM leukemia; 66.4 µM with LOX IMVI melanoma; 37.8 µM with TK-10 renal. Besides, the TGI worked out at 35.9 µM with M14 melanoma, 24.6 µM in the experiment with MDA-MB-435, 26.5 µM in the experiment on 786-0 renal and 24.9 µM in the experiment with SN12C renal.

Take `CN1CCN(Cc2ccc(NC(=O)c3[nH]ncc3Nc3ncnc4[nH]ccc34)cc2)CC1`: the GI50 in the experiment with SK-MEL-2 melanoma was 0.325 µM; with HCT-116 colon, 0.214 µM; with DU-145 prostate, 0.311 µM; in the experiment with CCRF-CEM leukemia, 0.254 µM; in the experiment with LOX IMVI melanoma, 0.201 µM; in the experiment with TK-10 renal, 0.562 µM. The GI50 was 0.473 µM in the experiment with M14 melanoma, 0.298 µM with MDA-MB-435, 0.301 µM with 786-0 renal and 0.333 µM in the experiment on SN12C renal. For the same molecule, the TGI in the experiment on SK-MEL-2 melanoma is 0.921 µM; with HCT-116 colon it was 13.1 µM; in the experiment on DU-145 prostate, over 100 µM; with CCRF-CEM leukemia, 5.68 µM; in the experiment with LOX IMVI melanoma it was 0.759 µM; in the experiment with TK-10 renal it was 2.37 µM. The TGI in the experiment on M14 melanoma is 8.66 µM; in the experiment on MDA-MB-435, 1.71 µM; in the experiment with 786-0 renal, 2 µM; in the experiment on SN12C renal it was over 100 µM.

Turning to `COc1cc(C)cc(C(=O)/C=C/c2ccccc2)c1O`, the TGI was 48.2 µM with SK-MEL-2 melanoma; 34.9 µM with HCT-116 colon; 29.4 µM in the experiment with DU-145 prostate; 84.1 µM in the experiment on CCRF-CEM leukemia; 34.8 µM with LOX IMVI melanoma; 35.8 µM with TK-10 renal. In addition, the TGI in the experiment with M14 melanoma worked out at 34.8 µM; with MDA-MB-435 it was 83.6 µM; with 786-0 renal it was 37.3 µM; in the experiment on SN12C renal, 34 µM.

In the case of `CC1CCCC(C#N)(NOC2=NCCN2)C1` (stereo not given), the GI50 in the experiment with SK-MEL-2 melanoma was 57.3 µM; in the experiment on HCT-116 colon, 31.7 µM; in the experiment on DU-145 prostate it was 24.1 µM; with CCRF-CEM leukemia, 53.8 µM; in the experiment on LOX IMVI melanoma it was 12.7 µM; with TK-10 renal it was 12.9 µM. Further, the GI50 is 84.1 µM in the experiment on M14 melanoma, 35.4 µM in the experiment with MDA-MB-435, over 100 µM with 786-0 renal and 26.5 µM with SN12C renal. Further, the TGI was over 100 µM with SK-MEL-2 melanoma; over 100 µM in the experiment on HCT-116 colon; over 100 µM in the experiment on DU-145 prostate; over 100 µM in the experiment on CCRF-CEM leukemia; 25.4 µM in the experiment on LOX IMVI melanoma; 46.2 µM in the experiment on TK-10 renal. The TGI with M14 melanoma, with MDA-MB-435, in the experiment on 786-0 renal and with SN12C renal was over 100 µM throughout.

As to `COc1c(OC)c(OC)c2c(=O)cc(-c3ccc(OC(C)C)cc3)oc2c1OC`, the TGI in the experiment with SK-MEL-2 melanoma was over 50.7 µM; in the experiment on HCT-116 colon, 23.6 µM; with DU-145 prostate it was over 50.8 µM; in the experiment on CCRF-CEM leukemia it was over 68.5 µM; in the experiment with LOX IMVI melanoma, over 55.2 µM; in the experiment on TK-10 renal, over 53.9 µM. For the same molecule, the TGI in the experiment on M14 melanoma was 43.1 µM; in the experiment with MDA-MB-435, over 53.5 µM; with 786-0 renal it was over 49.3 µM; in the experiment on SN12C renal it was over 53.4 µM.

As for `FC(F)c1ncc(-c2ccc(C(F)(F)F)cc2)c(NC2CCCCCC2)n1`, the GI50 in the experiment on SK-MEL-2 melanoma, in the experiment on HCT-116 colon, in the experiment on DU-145 prostate, in the experiment with CCRF-CEM leukemia, with LOX IMVI melanoma and in the experiment on TK-10 renal was over 10 µM each time. Moreover, the GI50 in the experiment with M14 melanoma, with MDA-MB-435, with 786-0 renal and in the experiment with SN12C renal was over 10 µM each time. Moreover, the TGI in the experiment with SK-MEL-2 melanoma, with HCT-116 colon, in the experiment on DU-145 prostate, in the experiment on CCRF-CEM leukemia, with LOX IMVI melanoma and in the experiment on TK-10 renal was over 10 µM each time. Also, the TGI in the experiment with M14 melanoma, with MDA-MB-435, in the experiment on 786-0 renal and in the experiment on SN12C renal was over 10 µM throughout.

On to `C=CC1C(CC2OC(CO)C(O)C(O)C2O)OC=C2C(=O)OCCC21O` (stereo not given), for which the GI50 with SK-MEL-2 melanoma was 22.4 µM; in the experiment with HCT-116 colon it was 16.2 µM; in the experiment with DU-145 prostate, 13.8 µM; in the experiment on CCRF-CEM leukemia, 5.32 µM; in the experiment with LOX IMVI melanoma, 8.37 µM; with TK-10 renal, 26 µM. Moreover, the GI50 with M14 melanoma was 22.3 µM; in the experiment with MDA-MB-435, 13.7 µM; in the experiment with 786-0 renal, 2.67 µM; in the experiment with SN12C renal it was 20.8 µM. Also, the TGI with SK-MEL-2 melanoma turned out to be 71.4 µM; in the experiment with HCT-116 colon, 32.1 µM; in the experiment on DU-145 prostate, 62.6 µM; in the experiment on CCRF-CEM leukemia, 28.9 µM; in the experiment on LOX IMVI melanoma it was 23.4 µM; with TK-10 renal, 90.3 µM. Moreover, the TGI in the experiment with M14 melanoma is 65.7 µM; in the experiment on MDA-MB-435, 44.5 µM; in the experiment on 786-0 renal, 17.5 µM; in the experiment on SN12C renal, 75.6 µM.
